pIC50: −log10 of the molar value. Where two headings read alike, the source gives them in different places.
Target: T1, Zcchc11 enzyme (Homo sapiens, UniProt Q5TAX3)
T1 construct: made in house; host or cells: HEK293 cells (Zcchc11); E. coli Rosetta II (LIN28A)
T1 sequence (Q5TAX3 212-1420): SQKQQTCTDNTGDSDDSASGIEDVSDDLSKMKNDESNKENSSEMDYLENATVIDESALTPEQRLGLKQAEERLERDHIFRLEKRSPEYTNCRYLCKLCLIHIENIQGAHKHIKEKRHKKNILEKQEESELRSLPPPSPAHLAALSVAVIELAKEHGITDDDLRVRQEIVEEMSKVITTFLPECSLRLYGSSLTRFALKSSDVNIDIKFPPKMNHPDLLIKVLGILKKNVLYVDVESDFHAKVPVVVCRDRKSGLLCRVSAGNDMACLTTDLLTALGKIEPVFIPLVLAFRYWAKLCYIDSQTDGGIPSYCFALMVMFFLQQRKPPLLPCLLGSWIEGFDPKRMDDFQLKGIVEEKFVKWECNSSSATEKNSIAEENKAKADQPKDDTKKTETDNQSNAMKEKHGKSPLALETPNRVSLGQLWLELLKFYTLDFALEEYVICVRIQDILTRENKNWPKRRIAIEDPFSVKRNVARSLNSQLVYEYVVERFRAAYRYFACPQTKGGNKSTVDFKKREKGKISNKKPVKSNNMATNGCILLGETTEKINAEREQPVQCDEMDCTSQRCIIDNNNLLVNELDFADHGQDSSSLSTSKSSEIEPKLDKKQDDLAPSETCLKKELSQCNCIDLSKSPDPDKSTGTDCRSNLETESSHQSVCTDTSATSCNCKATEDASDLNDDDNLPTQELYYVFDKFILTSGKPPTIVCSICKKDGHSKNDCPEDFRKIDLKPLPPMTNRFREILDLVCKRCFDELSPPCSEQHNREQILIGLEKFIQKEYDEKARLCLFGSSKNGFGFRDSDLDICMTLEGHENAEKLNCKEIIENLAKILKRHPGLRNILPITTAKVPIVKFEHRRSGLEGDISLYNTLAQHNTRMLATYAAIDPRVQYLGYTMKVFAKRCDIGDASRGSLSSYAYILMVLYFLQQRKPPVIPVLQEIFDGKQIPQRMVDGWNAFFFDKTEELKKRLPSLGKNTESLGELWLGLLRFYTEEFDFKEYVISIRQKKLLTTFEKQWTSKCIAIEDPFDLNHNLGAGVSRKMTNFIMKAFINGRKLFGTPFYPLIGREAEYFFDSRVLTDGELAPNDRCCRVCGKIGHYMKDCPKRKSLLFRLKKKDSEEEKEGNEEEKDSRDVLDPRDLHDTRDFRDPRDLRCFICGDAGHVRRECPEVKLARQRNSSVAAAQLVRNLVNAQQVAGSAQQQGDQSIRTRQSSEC
Assay: TUTase assay (Zcchc11 assay, Lin28a-dependent polyuridylation of pre-let-7)
Type: biochemical
Details: read-out: Potency Lin28a-dep Z11 IC50
Outline: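 Readout: time-dependent quench of 5′-fluorescein pre-let-7 (2 nM) as 3′-rhodamine A20 probe anneals to poly(U) tails. Enzyme 0.2 nM Zcchc11 (res. 212-1420), LIN28A 10 nM, UTP 5 uM; pH 7.3 HEPES, 150 mM KCl, 5 mM MgCl2, RT. 4-parameter IC50; 100% = DMSO, 0% = no UTP.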

[1] = LIN28A 10 nM, Zcchc11 0.2 nM, 5′-fluorescein pre-let-7 miRNA 2 nM, UTP 5 uM, room temperature, 30 minutes pre-incubation
[2] = Lin28a-dependent Zcchc11 (Z11) TUTase assay
[3] = Lin28a-dependent Zcchc11 (Z11) TUTase activity

SMILES	pIC50 [2]	pIC50 [3]	also measured
NC1CN(c2ccc(-n3cc(C(=O)O)c(=O)c4cc(Cl)c(N5CCC[C@@H]5COc5ncccc5Cl)cc43)cn2)C1 [Example 28, (R)-1-(6-(3-aminoazetidin-1-yl)pyridin-3-yl)-6-chloro-7-(2-(((3-chloropyridin-2-yl)oxy)methyl)pyrrolidin-1-yl)-4-oxo-1,4-dihydroquinoline-3-carboxylic acid]	–	–	pIC50 [1]: ≥ 6.00
O=C(O)c1cn(C2CC2)c2cc(N3CCC[C@@H]3COc3ccccc3)c(F)cc2c1=O [Compound 96, (R)-1-cyclopropyl-6-fluoro-4-oxo-7-(2-(phenoxy-methyl)pyrrolidin-1-yl)-1,4-dihydro-quinoline-3-carboxylic acid]	–	< 4.30	–
COc1ccc(Cl)c(OC[C@H]2C[C@@H]3C[C@@H]3N2c2cc3c(cc2F)c(=O)c(C(=O)O)cn3-c2ccc(N3CC(N(C)C)C3)nc2)n1 [Example 70, 7-[(3R)-3-{[(3-chloro-6-methoxypyridin-2-yl)oxy]methyl}-2-azabicyclo[3.1.0]hexan-2-yl]-1-{6-[3-(dimethylamino)azetidin-1-yl]pyridin-3-yl}-6-fluoro-4-oxo-1,4-dihydroquinoline-3-carboxylic acid]	–	–	pIC50 [1]: ≥ 6.00
O=C(O)c1cn(-c2ncc(O)cn2)c2cc(N3CCC[C@@H]3COc3ccccn3)c(F)cc2c1=O [Compound 88, (R)-6-fluoro-1-(5-hydroxy-pyrimidin-2-yl)-4-oxo-7-(2-((pyridin-2-yloxy)methyl)pyrrolidin-1-yl)-1,4-dihydro-quinoline-3-carboxylic acid]	–	5.00 to 6.00	–
COCCN1CC(n2cc(C(=O)O)c(=O)c3cc(Cl)c(N4CCC[C@@H]4COc4ncccc4Cl)cc32)C1 [Example 470, (R)-6-chloro-7-(2-(((3-chloropyridin-2-yl)oxy)methyl)pyrrolidin-1-yl)-1-(1-(2-methoxy-ethyl)azetidin-3-yl)-1-(1-(2-methoxyethyl)azetidin-3-yl)-4-oxo-1,4-dihydroquinoline-3-carboxylic acid]	5.00 to 6.00	–	–
O=C(O)c1cn(Cc2ccncc2)c2cc(N3CCC[C@@H]3COc3ncccc3Cl)c(Cl)cc2c1=O [Example 577, (R)-6-chloro-7-(2-(((3-chloropyridin-2-yl)oxy)methyl)pyrrolidin-1-yl)-4-oxo-1-(pyridin-4-ylmethyl)-1,4-dihydroquinoline-3-carboxylic acid]	5.00 to 6.00	–	–
O=C(O)c1cn(Cc2ccccc2)c2cc(N3CCC[C@@H]3COc3ncccc3Cl)c(Cl)cc2c1=O [Example 556, (R)-1-benzyl-6-chloro-7-(2-(((3-chloropyridin-2-yl)oxy)methyl)pyrrolidin-1-yl)-4-oxo-1,4-dihydroquinoline-3-carboxylic acid]	5.00 to 6.00	–	–
CC1(n2cc(C(=O)O)c(=O)c3cc(Cl)c(N4C(=O)CC[C@H]4COc4ccccn4)cc32)CC1 [Compound 288, (S)-6-chloro-1-(1-methylcyclo-propyl)-4-oxo-7-(2-oxo-5-((pyridin-2-yloxy)methyl)pyrrolidin-1-yl)-1,4-dihydro-quinoline-3-carboxylic acid]	–	< 4.30	–
CC(=O)N1CC(n2cc(C(=O)O)c(=O)c3cc(Cl)c(N4CCC[C@@H]4COc4ncccc4C)cc32)C1 [Example 36, 1-(1-Acetylazetidin-3-yl)-6-chloro-7-[(2R)-2-{[(3-methylpyridin-2-yl)oxy]methyl}pyrrolidin-1-yl]-4-oxo-1,4-dihydroquinoline-3-carboxylic acid]	–	–	pIC50 [1]: 5.00 to 6.00
O=C(O)c1cn(-c2ccc(N3CC4(CNC4)C3)nc2)c2cc(N3CCC[C@@H]3COc3ncccc3Cl)c(Cl)cc2c1=O [Example 496, (R)-1-(6-(2,6-diazaspiro[3.3]heptan-2-yl)pyridin-3-yl)-6-chloro-7-(2-(((3-chloropyridin-2-yl)oxy)methyl)pyrrolidin-1-yl)-4-oxo-1,4-dihydroquinoline-3-carboxylic acid]	≥ 6.00	–	–
COCCn1cc(-n2cc(C(=O)O)c(=O)c3cc(Cl)c(N4CCC[C@@H]4COc4ncccc4Cl)cc32)cn1 [Example 435, (R)-6-chloro-7-(2-(((3-chloropyridin-2-yl)oxy)methyl)pyrrolidin-1-yl)-1-(1-(2-methoxy-ethyl)-1H-pyrazol-4-yl)-4-oxo-1,4-dihydroquinoline-3-carboxylic acid]	≥ 6.00	–	–
O=C(O)c1cn(C2CCCC2)c2cc(N3CCC[C@@H]3COc3ccccn3)c(F)cc2c1=O [Example 449, (R)-1-cyclopentyl-6-fluoro-4-oxo-7-(2-((pyridin-2-yloxy)methyl)pyrrolidin-1-yl)-1,4-dihydroquinoline-3-carboxylic acid]	5.00 to 6.00	–	–
O=C(O)c1cn(Cc2cccnc2)c2cc(N3CCC[C@@H]3COc3ncccc3Cl)c(Cl)cc2c1=O [Example 557, (R)-6-chloro-7-(2-(((3-chloropyridin-2-yl)oxy)methyl)pyrrolidin-1-yl)-4-oxo-1-(pyridin-3-ylmethyl)-1,4-dihydroquinoline-3-carboxylic acid]	≥ 6.00	–	–

Second part, led by results:

pIC50 [2]	pIC50 [3]	SMILES	also measured
≥ 6.00	–	CC(=O)Nc1ccc(-n2cc(C(=O)O)c(=O)c3cc(F)c(N4CCC[C@@H]4COc4ccccn4)cc32)cc1 [Example 370, (R)-1-(4-acetamidophenyl)-6-fluoro-4-oxo-7-(2-((pyridin-2-yloxy)methyl)pyrrolidin-1-yl)-1,4-dihydro-quinoline-3-carboxylic acid]	–
≥ 6.00	–	COc1ccc(Cl)c(OC[C@H]2CCCN2c2cc3c(cc2C(F)(F)F)c(=O)c(C(=O)O)cn3-c2ccc(N3CC(N(C)C)C3)nc2)n1 [Example 659, (R)-7-(2-(((3-chloro-6-methoxypyridin-2-yl)oxy)methyl)pyrrolidin-1-yl)-1-(6-(3-(dimethylamino)azetidin-1-yl)pyridin-3-yl)-4-oxo-6-(trifluoromethyl)-1,4-dihydroquinoline-3-carboxylic acid]	–
–	≥ 6.00	CN(C)C1CN(c2ccc(-n3cc(C(=O)O)c(=O)c4cc(Cl)c(N5CCC[C@@]5(C)COc5ncccc5Cl)cc43)cn2)C1 (racemic) [Compound 314, rac-(R)-6-chloro-7-(2-(((3-chloropyridin-2-yl)oxy)methyl)-2-methyl-pyrrolidin-1-yl)-1-(6-(3-(dimethyl-amino)azetidin-1-yl)pyridin-3-yl)-4-oxo-1,4-dihydro-quinoline-3-carboxylic acid formic acid]	–
–	4.30 to 5.00	O=C(O)c1cn(-c2ccc(N3CCC3)nc2)c2cc(N3C(=O)CC[C@@H]3COc3ccccn3)c(Cl)cc2c1=O [Compound 287, (R)-1-(6-(azetidin-1-yl)pyridin-3-yl)-6-chloro-4-oxo-7-(2-oxo-5-((pyridin-2-yloxy)methyl)pyrrolidin-1-yl)-1,4-dihydro-quinoline-3-carboxylic acid]	–
–	≥ 6.00	CN(C)C(=O)OC[C@H]1CCCN1c1cc2c(cc1Cl)c(=O)c(C(=O)O)cn2-c1ccc(N2CC(N(C)C)C2)nc1 (racemic) [Compound 195, rac-(R)-6-chloro-1-(6-(3-(dimethyl-amino)azetidin-1-yl)pyridin-3-yl)-7-(2-(((dimethylcarbamoyl)oxy)methyl)pyrrolidin-1-yl)-4-oxo-1,4-dihydro-quinoline-3-carboxylic acid formic acid]	–
≥ 6.00	–	CN(C)C1CN(c2cc(-n3cc(C(=O)O)c(=O)c4cc(Cl)c(N5CCC[C@@H]5COc5ccccn5)cc43)ccn2)C1 [Example 564, (R)-6-chloro-1-(2-(3-(dimethylamino)azetidin-1-yl)pyridin-4-yl)-4-oxo-7-(2-((pyridin-2-yloxy)methyl)pyrrolidin-1-yl)-1,4-dihydroquinoline-3-carboxylic acid]	–
–	≥ 6.00	CN(C)C1CN(c2ccc(-n3cc(C(=O)O)c(=O)c4cc(Cl)c(N5CC(c6ccccn6)C[C@@H]5COc5ncccc5Cl)cc43)cn2)C1 (mixture of isomers) [Compound 315, rac-6-chloro-7-((2R)-2-(((3-chloropyridin-2-yl)oxy)methyl)-4-(pyridin-2-yl)pyrrolidin-1-yl)-1-(6-(3-(dimethyl-amino)azetidin-1-yl)pyridin-3-yl)-4-oxo-1,4-dihydro-quinoline-3-carboxylic acid]	–

Source: patent publication US12662491B2 (Redona Therapeutics, Inc., priority 2020, dated 2026)
